Reference: patent publication US11530244B2, “Cyclic polypeptides for PCSK9 inhibition” (priority 2018, dated 2022)
Starred links: 1 amine or outer side, 2 acyl side, 3 side chain; linkers in the order of their positions; H or OH if unused. Positions of bridges follow the written chain, without caps; N, C: chain ends. Non-standard residues stand in square brackets, D forms with d. Residues, ends and D or L forms follow the SMILES beside them. X25 = O=C([C@H](Cc1cccc(OCC=[*:3])c1)N[*:1])[*:2]; Trp(5-F) = N[C@@H](Cc1c[nH]c2ccc(F)cc12)C(=O)O; X3 = O=C(CCSCc1cc(F)cc(CSCCN[*:1])c1)[*:2]; X42 = CN([C@@H](CCC=[*:3])C(=O)[*:2])[*:1]; Leu(3R-OH) = CC(C)[C@@H](O)[C@H](N)C(=O)O; X13 = O=C(CCCCc1cccc(CCCCN[*:1])c1)[*:2]; mXylylene = c1cc(C[*:1])cc(C[*:2])c1; Val(3-OH) = CC(C)(O)[C@H](N)C(=O)O; β3hT = C[C@@H](O)[C@H](N)CC(=O)O; aThr = C[C@H](O)[C@H](N)C(=O)O; αMeP = C[C@@]1(C(=O)O)CCCN1; Mpa = O=C(O)CCS

How the values were obtained:
PCSK9 = PCSK9 (Homo sapiens (Human), UniProt Q8NBP7); experiment: PCSK9 Alexa FRET Standard assay (displacement of AlexaFluor647 tagged cyclic peptide Reagent A); format: binding; conditions: PCSK9 Alexa FRET Standard assay, 0.5 nM PCSK9, 20 nM AF cyclic peptide Reagent A; read-out: IC50
Chain of PCSK9 (Q8NBP7 153-692): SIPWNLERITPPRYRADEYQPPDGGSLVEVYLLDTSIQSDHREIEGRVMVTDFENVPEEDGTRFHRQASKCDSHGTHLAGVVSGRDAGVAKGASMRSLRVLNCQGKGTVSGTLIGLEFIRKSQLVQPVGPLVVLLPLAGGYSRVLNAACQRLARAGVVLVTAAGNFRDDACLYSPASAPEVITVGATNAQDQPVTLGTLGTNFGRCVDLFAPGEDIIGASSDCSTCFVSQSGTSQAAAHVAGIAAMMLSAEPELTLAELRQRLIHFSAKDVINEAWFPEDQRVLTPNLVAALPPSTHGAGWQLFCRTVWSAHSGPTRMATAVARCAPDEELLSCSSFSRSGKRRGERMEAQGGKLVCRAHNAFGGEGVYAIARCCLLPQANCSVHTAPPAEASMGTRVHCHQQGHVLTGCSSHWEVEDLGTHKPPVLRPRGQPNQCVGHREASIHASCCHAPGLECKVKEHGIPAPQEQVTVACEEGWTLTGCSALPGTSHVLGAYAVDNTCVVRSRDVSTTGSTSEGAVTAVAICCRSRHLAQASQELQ
Procedure, shortened: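 TR-FRET displacement: 0.5 nM biotinylated PCSK9 with 1.25 nM Strep-Eu and 20 nM AlexaFluor-tagged cyclic peptide (final) in 50 mM HEPES pH 7.4, 0.15 M NaCl, 5 mM CaCl2, 0.01% BSA, 0.01% P20, ≥2 h at room temperature. IC50 from sigmoidal fit, converted to Ki via peptide KD; falling Eu counts flagged false positives.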

[1] = molecular target: human PCSK9 / human LDLR EGFa domain interaction (Homo sapiens (Human), UniProt Q8NBP7); experiment: TR-FRET assay of inhibition of the PCSK9-LDLR protein-protein interaction; format: binding; conditions: TR-FRET, 20 nM human PCSK9, 20 nM human LDLR EGFa domain, 2 hours room temperature; read-out: IC50
Chain of human PCSK9 / human LDLR EGFa domain interaction (Q8NBP7 153-692): as above
Chain of human PCSK9 / human LDLR EGFa domain interaction (Q8NBP7 31-152 partner): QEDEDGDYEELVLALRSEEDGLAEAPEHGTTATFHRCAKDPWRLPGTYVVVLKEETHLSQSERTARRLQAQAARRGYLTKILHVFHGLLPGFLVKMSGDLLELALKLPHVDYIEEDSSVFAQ
Procedure, shortened: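 Biotinylated PCSK9 (20 nM) and His-tagged LDLR EGFa domain (20 nM) were incubated 2 h at room temperature with 5 nM Ulight-streptavidin and 5 nM Eu-anti-His in HEPES/NaCl/CaCl2 buffer with 0.01% BSA and 0.01% P20. TR-FRET was read; half-maximal inhibitory concentrations came from 4-parameter dose-response fits.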

IC50 (PCSK9)	IC50 [1]	Compound
100 to 1000 nM	100 to 1000 nM	CC(C)(O)[C@@H]1NC(=O)[C@@H]2CCCN2C(=O)[C@H](Cc2c[nH]c3ccc(F)cc23)NC(=O)[C@H](Cc2c[nH]c3ccc(F)cc23)NC(=O)CNC(=O)[C@H](CCCCN)NC(=O)CCSCc2cccc(c2)CSC[C@@H](C(N)=O)NC(=O)[C@]2(C)CCCN2C(=O)[C@H](Cc2ccc(O)cc2)NC1=O [Compound 048] ([Mpa]KG[Trp(5-F)][Trp(5-F)]P[Val(3-OH)]Y[αMeP]C-NH2; linker 1-10 via mXylylene)
100 to 1000 nM	100 to 1000 nM	CC(C)[C@@H](O)[C@@H]1NC(=O)[C@@H]2CCCN2C(=O)[C@H](Cc2c[nH]c3ccc(F)cc23)NC(=O)[C@H](Cc2c[nH]c3ccc(F)cc23)NC(=O)CNC(=O)[C@H](CCCCN)NC(=O)CCSCc2cccc(c2)CSC[C@@H](C(N)=O)NC(=O)[C@]2(C)CCCN2C(=O)[C@H](Cc2ccc(O)cc2)NC1=O [Compound 049] ([Mpa]KG[Trp(5-F)][Trp(5-F)]P[Leu(3R-OH)]Y[αMeP]C-NH2; linker 1-10 via mXylylene)
21000 to 50000 nM	21000 to 50000 nM	C[C@H](O)[C@@H]1NC(=O)[C@@H]2CCCN2C(=O)[C@H](Cc2c[nH]c3ccc(F)cc23)NC(=O)[C@H](Cc2c[nH]c3ccc(F)cc23)NC(=O)CNC(=O)[C@H](CCCCN)NC(=O)CCSCc2cccc(c2)CSC[C@@H](C(N)=O)NC(=O)[C@]2(C)CCCN2C(=O)[C@H](Cc2ccc(O)cc2)NC1=O [Compound 050] ([Mpa]KG[Trp(5-F)][Trp(5-F)]P[aThr]Y[αMeP]C-NH2; linker 1-10 via mXylylene)
0.11 to 100 nM	0.1 to 100 nM	C[C@@H](O)[C@H]1CC(=O)N[C@@H](Cc2ccc(O)cc2)C(=O)N2CCC[C@@]2(C)C(=O)N[C@H](C(N)=O)CSCc2cccc(c2)CSCCC(=O)N[C@@H](CCCCN)C(=O)NCC(=O)N[C@@H](Cc2c[nH]c3ccc(F)cc23)C(=O)N[C@@H](Cc2c[nH]c3ccc(F)cc23)C(=O)N2CCC[C@H]2C(=O)N1 [Compound 051] ([Mpa]KG[Trp(5-F)][Trp(5-F)]P[β3hT]Y[αMeP]C-NH2; linker 1-10 via mXylylene)
1000 to 12100 nM	1000 to 12100 nM	CC(C)[C@H]1NC(=O)[C@H](CCCCN)NC(=O)CCSCc2cccc(c2)CSC[C@@H](C(N)=O)NC(=O)[C@]2(C)CCCN2C(=O)[C@H](Cc2ccc(O)cc2)NC(=O)[C@H]([C@@H](C)O)NC(=O)[C@@H]2CCCN2C(=O)[C@H](Cc2c[nH]c3ccc(F)cc23)NC(=O)[C@H](Cc2c[nH]c3ccc(F)cc23)NC1=O [Compound 052] ([Mpa]K[dV][Trp(5-F)][Trp(5-F)]PTY[αMeP]C-NH2; linker 1-10 via mXylylene)
1000 to 12100 nM	1000 to 12100 nM	CO[C@@H](C)[C@@H]1NC(=O)[C@@H]2CCCN2C(=O)[C@H](Cc2c[nH]c3ccc(F)cc23)NC(=O)[C@H](Cc2c[nH]c3ccc(F)cc23)NC(=O)[C@@H](C)NC(=O)[C@H](CCCCN)NC(=O)CCSCc2cccc(c2)CSC[C@@H](C(N)=O)NC(=O)[C@]2(C)CCCN2C(=O)[C@H](Cc2ccc(O)cc2)NC1=O [Compound 053] ([Mpa]K[dA][Trp(5-F)][Trp(5-F)]P[aThr](Me)Y[αMeP]C-NH2; linker 1-10 via mXylylene)
	100 to 1000 nM	COc1ccc(C[C@@H]2NC(=O)[C@H]([C@@H](C)OC)NC(=O)[C@@H]3CC/C=C/COc4cccc(c4)C[C@H](NC(=O)[C@@H](C)NC(=O)[C@H](C)NC(=O)CCSCc4cc(F)cc(c4)CSCCNC(=O)[C@]4(C)CCCN4C2=O)C(=O)N[C@@H](Cc2c[nH]c4ccc(F)cc24)C(=O)N3C)cc1 [Compound 504] (cyclo(A[dA][X25][Trp(5-F)][X42]T(Me)Y(Me)[αMeP][X3]); staple (E) 3-5)
	100 to 1000 nM	COc1ccc(C[C@@H]2NC(=O)[C@H]([C@@H](C)OC)NC(=O)[C@@H]3CC/C=C\COc4cccc(c4)C[C@H](NC(=O)[C@@H](C)NC(=O)[C@H](C)NC(=O)CCSCc4cc(F)cc(c4)CSCCNC(=O)[C@]4(C)CCCN4C2=O)C(=O)N[C@@H](Cc2c[nH]c4ccc(F)cc24)C(=O)N3C)cc1 [Compound 505] (cyclo(A[dA][X25][Trp(5-F)][X42]T(Me)Y(Me)[αMeP][X3]); staple (Z) 3-5)
	100 to 1000 nM	COc1ccc(C[C@@H]2NC(=O)[C@@H]3CCCC/C=C/CO[C@H]4C[C@@H](C(=O)N3)N(C4)C(=O)[C@H](Cc3c[nH]c4ccc(F)cc34)NC(=O)[C@H](Cc3c[nH]c4ccc(F)cc34)NC(=O)[C@@H](C)NC(=O)[C@H](CCCCN)NC(=O)CCSCc3cccc(c3)CSC[C@@H](C(N)=O)NC(=O)[C@]3(C)CCCN3C2=O)cc1 [Compound 508]

Compound	IC50 (PCSK9)	IC50 [1]
COc1ccc(C[C@@H]2NC(=O)[C@H]([C@@H](C)O)NC(=O)[C@@H]3CCCN3C(=O)[C@H](Cc3c[nH]c4ccc(F)cc34)NC(=O)[C@H](Cc3c[nH]c4ccc(F)cc34)NC(=O)[C@@H](C)NC(=O)[C@H](C)NC(=O)CCCCc3cccc(c3)CCCCNC(=O)[C@@H]3CCCN3C2=O)cc1 [Compound 047] (cyclo(A[dA][Trp(5-F)][Trp(5-F)]PTY(Me)P[X13]))	100 to 1000 nM	100 to 1000 nM
